17 compounds from US11667645B2, “Granzyme B directed imaging and therapy” (CytoSite Biopharma Inc., priority 2018, dated 2023) can be followed below.

The structures appear in SMILES notation.

Sequence of Granzyme B (human lymphocytes) (P10144 21-247): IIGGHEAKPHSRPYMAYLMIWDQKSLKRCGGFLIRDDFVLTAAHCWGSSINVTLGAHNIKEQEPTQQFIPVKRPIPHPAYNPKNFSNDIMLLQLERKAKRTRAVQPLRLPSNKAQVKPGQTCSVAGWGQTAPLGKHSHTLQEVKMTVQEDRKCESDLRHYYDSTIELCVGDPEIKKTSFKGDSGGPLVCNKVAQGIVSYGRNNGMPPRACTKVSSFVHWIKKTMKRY

The target of this assay is Granzyme B (human lymphocytes) (Homo sapiens (Human), UniProt P10144). In words: human Granzyme B biochemical assay. As to conditions: Granzyme B (human lymphocytes) 5 nM, substrate Ac-IETD-AFC 200 μM, Cpd incubation with enzyme 30 mins, 22° C., read time 60 mins; read-out: IC50. The text has this:
The compounds of Formula I-VIII described above can be tested using the human Granzyme B biochemical assay provided below.
Materials: • 1. Granzyme B (human lymphocytes) Enzyme: Enzo Lifesciences, Cat #ALX-200-602-0010 • 2. Substrate (Ac-IETD-AFC): Enzo Lifesciences, Cat #ALX-260-110-M010 • 3. Standard inhibitor (Compound 20-Isomer3): Synthesized internally in TCG • 4. Dimethyl sulfoxide (DMSO): Sigma-Aldrich, Cat #41639 • 5. HEPES: Gibco, Cat #15630-080 • 6. Calcium chloride: Sigma-Aldrich, Cat #C-5080 • 7. Distilled water: Gibco, Cat #15230-162 • 8. Bovine serum albumin (BSA): Sigma-Aldrich, Cat #A3059 • 9. Black, clear bottom PDL plate (384 wells): Greiner bio-one, Cat #781946 • 10. Polypropylene plate (384 wells): Corning, Cat #3657 Assay Buffer Composition:
Compound Preparation: • 1. DMSO is added to the respective compound vial to make 10 mM Compound stock solution, which is stored at −20° C. • 2. 10 mM Compound stock solution is thawed and 1 mM DMSO stock solution is prepared by adding 45 μl of DMSO to 5 μl of 10 mM compound stock solution. • 3. 1 mM DMSO stock solution is serially diluted (3.16 fold) by adding 10 μl of 1 mM DMSO stock to 21.6 μl of DMSO and mixed well. 10 μl of the resulting solution is then added to 21.6 μl of DMSO and mixed well. This process is continued to create 11 dilution points for the assay standard inhibitor and 8 dilution points for test compounds in 384 well polypropylene plate. • 4. 2 μl of each dilution are dispensed in assay ready plate. • 5. Each well is then diluted 25 fold by adding 48 μl of assay buffer to 2 μl of compound in assay ready plate to make Compound working stock. Enzyme Preparation: • 1. Supplied Granzyme B (human lymphocytes) enzyme is reconstituted to 1 mg/ml (about 31.25 μM) and 1 μl aliquots are kept in −80° C. • 2. 1 μl aliquot is diluted to 625 nM by adding 49 μl of assay buffer containing 0.1% BSA and gently mixed. • 3. 10 nM enzyme working stock is prepared by adding assay buffer containing 0.1% BSA. Substrate Preparation: • 1. Supplied substrate (Ac-IETD-AFC) is reconstituted by adding DMSO to make 10 mM stock, aliquoted and stored in −80° C. • 2. 4 mM substrate mid stock is prepared by adding DMSO. • 3. Substrate working stock i.e. 800 μM is prepared by adding assay buffer. Assay Protocol: • 1. 10 μl of serially diluted Compound working stock (start dose 40 μM) is added from assay ready plate to assay plate according to the plate map. • 2. Positive control (40 μM of standard inhibitor) and negative control (4% DMSO buffer) are added to the respective wells. • 3. 20 μl of Enzyme working stock is added to assay plate and gently mixed. • 4. The plate is incubated at 22° C. for 30 mins and spun at 130 g for 1 minute. • 5. After incubation, 10 μl of Substrate working stock is added to respective wells and mixed (Assay plate is maintained in dark after substrate addition). • 6. The plate is incubated at 22° C. for 60 mins and spun at 130 g for 1 minute. • 7. Fluorescence read (RFU) (Ex: 400 nm/Em: 505 nm) is taken after 60 mins in EnVision Multimode plate reader. Final Assay Concentration:
Data Analysis: • 1. The RFU read is analyzed to calculate percent inhibition by normalizing with positive and negative controls taken as 100% and 0% effect respectively in Microsoft excel. • 2. Graph is generated by putting the analyzed data in GraphPad prism 5.0 software to get IC50 value for each compound.
With `C[C@H](NC(=O)Cc1csc2ccccc12)C(=O)N[C@H]1CCc2cccc3c2N(C1=O)[C@H](C(=O)NCc1c[nH]nn1)C3` [Compound C002, (2S,5S)-5-[(S)-2-(2-Benzo[b]thiophen-3-yl-acetylamino)propionylamino]-4-oxo-1,2,4,5,6,7-hexahydro-azepino[3,2,1-hi]indole-2-carboxylic acid (1H-[1,2,3]triazol-4-ylmethyl)amide], the IC50 (usually the concentration that inhibits the measured activity by half) is 1 to 5 µM.

For the compound `CC[C@H](C)[C@H](NC(=O)c1ccncc1)C(=O)N[C@H]1CCc2cccc3c2N(C1=O)[C@H](C(=O)NCc1c[nH]nn1)C3` [Compound C068, (2S,5S)-5-{(2S,3S)-3-Methyl-2-[(pyridine-4-carbonyl)-amino]-pentanoylamino}-4-oxo-1,2,4,5,6,7-hexahydro-azepino[3,2,1-hi]indole-2-carboxylicacid (1H-[1,2,3]triazol-4-ylmethyl)-amide], the 50% inhibitory concentration (IC50) lay within 0.001 to 0.3 µM.

As for `CC(=O)N[C@@H](C)C(=O)N[C@H]1CCc2cccc3c2N(C1=O)[C@H](C(=O)NCc1c[nH]nn1)C3` [Compound C024, (2S,5S)-5-((S)-2-Acetylamino-propionylamino)-4-oxo-1,2,4,5,6,7-hexahydro-azepino[3,2,1-hi]indole-2-carboxylic acid (1H-[1,2,3]triazol-4-ylmethyl)-amide], the concentration for half-maximal inhibition (IC50) is over 5 µM.

For `CC[C@H](C)[C@H](NC(=O)COCCF)C(=O)N[C@H]1CCc2cccc3c2N(C1=O)[C@H](C(=O)NCc1cscn1)C3` [Compound C115, (2S,5S)-5-{(2S,3S)-2-[2-(2-Fluoro-ethoxy)-acetylamino]-3-methyl-pentanoylamino}-4-oxo-1,2,4,5,6,7-hexahydro-azepino[3,2,1-hi]indole-2-carboxylic acid (thiazol-4-ylmethyl)-amide], the half-maximal inhibitory concentration (IC50) was over 5 µM.

On to `O=C(Cc1csc2ccccc12)N[C@H](C(=O)N[C@H]1CCc2cccc3c2N(C1=O)[C@H](C(=O)NCc1c[nH]nn1)C3)C1CCCC1` [Compound C075, (2S,5S)-5-[(S)-2-(2-Benzo[b]thiophen-3-yl-acetylamino)-2-cyclopentyl-acetylamino]-4-oxo-1,2,4,5,6,7-hexahydro-azepino[3,2,1-hi]indole-2-carboxylic acid (1H-[1,2,3]triazol-4-ylmethyl)-amide], for which the IC50 is 0.001 to 0.3 µM.

On to `CC(=O)NCC(=O)N[C@H]1CCc2cccc3c2N(C1=O)[C@H](C(=O)NCc1c[nH]nn1)C3` [Compound C023, (2S,5S)-5-(2-Acetylamino-acetylamino)-4-oxo-1,2,4,5,6,7-hexahydro-azepino[3,2,1-hi]indole-2-carboxylic acid (1H-[1,2,3]triazol-4-ylmethyl)-amide], for which the 50% inhibitory concentration (IC50) was over 5 µM.

In the case of `CC[C@H](C)[C@H](NC(=O)COCCF)C(=O)N[C@H]1CCc2cccc3c2N(C1=O)[C@H](C(=O)NCc1cn[nH]c1)C3` [Compound C116], the IC50 is over 5 µM.

Take `CC[C@H](NC(=O)c1ccccc1)C(=O)N[C@H]1CCc2cccc3c2N(C1=O)[C@H](C(=O)NCc1c[nH]nn1)C3` [Compound C045, (2S,5S)-5-((S)-2-Benzoylamino-butyrylamino)-4-oxo-1,2,4,5,6,7-hexahydro-azepino[3,2,1-hi]indole-2-carboxylic acid (1H-[1,2,3]triazol-4ylmethyl)-amide]: the IC50 lay in the range of 1 to 5 µM.

Turning to `CC(=O)N[C@@H](Cc1ccccc1)C(=O)N[C@H]1CCc2cccc3c2N(C1=O)[C@H](C(=O)NCc1c[nH]nn1)C3` [Compound C026, (2S,5S)-5-((S)-2-Acetylamino-3-phenyl-propionylamino)-4-oxo-1,2,4,5,6,7-hexahydro-azepino[3,2,1-hi]indole-2-carboxylic acid (1H-[1,2,3]triazol-4-ylmethyl)-amide], the IC50 fell in the range of 1 to 5 µM.

For `CC[C@H](C)[C@H](NC(=O)COCCF)C(=O)N[C@H]1CCc2cccc3c2N(C1=O)[C@H](C(=O)NCc1ccccn1)C3` [Compound C121, (2S,5S)-5-{(2S,3S)-2-[2-(2-Fluoro-ethoxy)-acetylamino]-3-methyl-pentanoylamino}-4-oxo-1,2,4,5,6,7-hexahydro-azepino[3,2,1-hi]indole-2-carboxylic acid (pyridin-2-ylmethyl)-amide], the concentration for half-maximal inhibition (IC50) is over 5 µM.

With `CC[C@H](C)[C@H](NC(=O)CC1Cc2ccccc2O1)C(=O)N[C@H]1CCc2cccc3c2N(C1=O)[C@H](C(=O)NCc1c[nH]nn1)C3` (stereo partly drawn) [Compound C173, (2S,5S)-5-[(2S,3S)-2-(2-2,3-Dihydro-benzofuran-2-yl-acetylamino)-3-methyl-pentanoylamino]-4-oxo-1,2,4,5,6,7-hexahydro-azepino[3,2,1-hi]indole-2-carboxylic acid (1H-[1,2,3]triazol-4-ylmethyl)-amide], the IC50 fell in the range of 0.001 to 0.3 µM.

Take `CC(=O)N[C@H](C(=O)N[C@H]1CCc2cccc3c2N(C1=O)[C@H](C(=O)N[C@@H](CC(=O)O)C(=O)O)C3)C(C)C` [Compound C092, (S)-2-{[(2S,5S)-5-((S)-2-Acetylamino-3-methyl-butyrylamino)-4-oxo-1,2,4,5,6,7-hexahydro-azepino[3,2,1-hi]indole-2-carbonyl]-amino}-succinic acid]: the IC50 was over 5 µM.

As to `CC[C@H](C)[C@H](NC(=O)COCCF)C(=O)N[C@H]1CCc2cccc3c2N(C1=O)[C@H](C(=O)NCc1nc(O)n[nH]1)C3` [Compound C164, (2S,5S)-5-{(2S,3S)-2-[2-(2-Fluoro-ethoxy)-acetylamino]-3-methyl-pentanoylamino}-4-oxo-1,2,4,5,6,7-hexahydro-azepino[3,2,1-hi]indole-2-carboxylic acid (5-hydroxy-2H-[1,2,4]triazol-3-ylmethyl)-amide], the IC50 was over 5 µM.

`CC(C)C[C@H](NC(=O)Cc1ccccc1)C(=O)N[C@H]1CCc2cccc3c2N(C1=O)[C@H](C(=O)NCc1c[nH]nn1)C3` [Compound C016, (2S,5S)-5-((S)-4-Methyl-2-phenylacetylamino-pentanoylamino)-4-oxo-1,2,4,5,6,7-hexahydro-azepino[3,2,1-hi]indole-2-carboxylic acid (1H-[1,2,3]triazol-4-ylmethyl)-amide]: the IC50 lay in the range of 1 to 5 µM.

With `CC(=O)N[C@H](C(=O)N[C@H]1CCc2cccc3c2N(C1=O)[C@H](C(=O)NCC(=O)O)C3)C(C)C` [Compound C085, {[(2S,5S)-5-((S)-2-Acetylamino-3-methyl-butyrylamino)-4-oxo-1,2,4,5,6,7-hexahydro-azepino[3,2,1-hi]indole-2-carbonyl]-amino}-acetic acid], the IC50 lay in the range of 1 to 5 µM.

`COC(=O)[C@H](C)NC(=O)[C@@H]1Cc2cccc3c2N1C(=O)[C@@H](NC(=O)[C@@H](NC(C)=O)C(C)C)CC3` [Compound C090, (S)-2-{[(2S,5S)-5-((S)-2-Acetylamino-3-methyl-butyrylamino)-4-oxo-1,2,4,5,6,7-hexahydro-azepino[3,2,1-hi]indole-2-carbonyl]-amino}-propionic acid methyl ester]: the IC50 was over 5 µM.

Regarding `CC[C@H](C)[C@H](NC(=O)COCCF)C(=O)N[C@H]1CCc2cccc3c2N(C1=O)[C@H](C(=O)NCc1cncs1)C3` [Compound C112, (2S,5S)-5-{(2S,3S)-2-[2-(2-Fluoro-ethoxy)-acetylamino]-3-methyl-pentanoylamino}-4-oxo-1,2,4,5,6,7-hexahydro-azepino[3,2,1-hi]indole-2-carboxylic acid (thiazol-5-ylmethyl)-amide], the IC50 is over 5 µM.
